Assay: Double amide coupling of bis-quinoline diacid with diamine (bis-indole diamine 5, or 1,5-pentanediamine for the precursor of 17); TCFH (4 equiv), N-methylimidazole (8 equiv); diamine (ca. 1.1-1.2 equiv, 6 mM in DMF) added at 20 uL/min to the activated diacid; intermolecular amide first, then intramolecular amide closure
Conditions: the molecule shown is the open-chain precursor, 2.0 mM

Nc1ccc2[nH]cc(Cc3c[nH]c4ccc(NC(=O)c5cnc6cc(NC(=O)CCCCCC(=O)Nc7ccc8cc(C(=O)O)cnc8c7)ccc6c5)cc34)c2c1 [13b3 (from 12b3 + 5)]
ring closure, isolated yield (34-membered ring): 20%

Nc1ccc2[nH]cc(Cc3c[nH]c4ccc(NC(=O)c5cnc6ccc(NC(=O)CCCCCCC(=O)Nc7ccc8ncc(C(=O)O)cc8c7)cc6c5)cc34)c2c1 [13a4 (from 12a4 + 5)]
ring closure, isolated yield (33-membered ring): 21%

Nc1ccc2[nH]cc(Cc3c[nH]c4ccc(NC(=O)c5cnc6ccc(NC(=O)CCCCC(=O)Nc7ccc8ncc(C(=O)O)cc8c7)cc6c5)cc34)c2c1 [13a2 (from 12a2 + 5)]
ring closure, isolated yield (31-membered ring): 21%

CC(C)(C)OC(=O)N(CCC(=O)Nc1ccc2cc(C(=O)O)cnc2c1)CCC(=O)Nc1ccc2cc(C(=O)Nc3ccc4[nH]cc(Cc5c[nH]c6ccc(N)cc56)c4c3)cnc2c1 [13b1 (from 12b1 + 5)]
ring closure, isolated yield (34-membered ring): 21%

Nc1ccc2[nH]cc(Cc3c[nH]c4ccc(NC(=O)c5cnc6cc(NC(=O)CCCCCCCC(=O)Nc7ccc8cc(C(=O)O)cnc8c7)ccc6c5)cc34)c2c1 [13b5 (from 12b5 + 5)]
ring closure, isolated yield (36-membered ring): 23%

Nc1ccc2[nH]cc(Cc3c[nH]c4ccc(NC(=O)c5cnc6cc(NC(=O)CCCCC(=O)Nc7ccc8cc(C(=O)O)cnc8c7)ccc6c5)cc34)c2c1 [13b2 (from 12b2 + 5)]
ring closure, isolated yield (33-membered ring): 21%

Nc1ccc2[nH]cc(Cc3c[nH]c4ccc(NC(=O)c5cnc6cc(NC(=O)CCCCCCC(=O)Nc7ccc8cc(C(=O)O)cnc8c7)ccc6c5)cc34)c2c1 [13b4 (from 12b4 + 5)]
ring closure, isolated yield (35-membered ring): 27%

CC(C)(C)OC(=O)N(CC(=O)Nc1ccc2ncc(C(=O)O)cc2c1)CC(=O)Nc1ccc2ncc(C(=O)Nc3ccc4[nH]cc(Cc5c[nH]c6ccc(N)cc56)c4c3)cc2c1 [13a1 (from 12a1 + 5)]
ring closure, isolated yield (30-membered ring): 23%

NCCCCCNC(=O)c1cnc2ccc(NC(=O)CCCCC(=O)Nc3ccc4ncc(C(=O)O)cc4c3)cc2c1 [precursor of 17 (from 12a2 + 1,5-pentanediamine)]
ring closure, isolated yield (27-membered ring): 15%

Nc1ccc2[nH]cc(Cc3c[nH]c4ccc(NC(=O)c5cnc6ccc(NC(=O)CCCCCC(=O)Nc7ccc8ncc(C(=O)O)cc8c7)cc6c5)cc34)c2c1 [13a3 (from 12a3 + 5)]
ring closure, isolated yield (32-membered ring): 20%
